Patent US5677419A, “Cyclic vasoactive peptide analogs” (Hoffmann-La Roche Inc., priority 1994, dated 1997)
Where a SMILES comes first, the peptide text is derived from it. Bridges are numbered along the chain shown (N, C = ends). [ ]: non-standard residue; d: D form. Phe(4-F) = N[C@@H](Cc1ccc(F)cc1)C(=O)O; 2Nal = N[C@@H](Cc1ccc2ccccc2c1)C(=O)O; Nle = CCCC[C@H](N)C(=O)O

Legend:
[1] = system: guinea pigs; experiment: In vivo bronchodilator activity by tracheal instillation against histamine challenge; design: species or system guinea pig; details: anesthetized male guinea pigs, inhibition of histamine (i.v.)-induced rise in tracheal pressure
Protocol: The in vivo bronchodilator activity of VIP and VIP analogs in guinea pigs was assessed by the tracheal instillation route of administration. This technique utilized male guinea pigs (Hartley strain, Charles River) weighing 400-600 g. Animals were anesthetized with urethane (2 g/kg) intraperitoneally and a polyethylene cannula was inserted into the jugular vein for intraveneous drug administration.
The animals were tracheotomized and dosing solutions of distilled water or test compound dissolved in distilled water were administered into the trachea, approximately three-quarters the distance to the carina with a pipette. The concentration of the dosing solution was adjusted to deliver a constant volume of […]. The animals were placed supine for one minute to aid drug delivery to the lung. One minute later, spontaneous breathing was arrested with succinylcholine chloride (1.2 mg/kg) administered intraveneously, and the animals were ventilated with a HARVARD Model 680 small animal respirator set at 40 breaths/min and 4.0 cm^3 stroke volume. The animals were challenged with a maximal constrictory dose of histamine ([…], i.v.) and tracheal pressure (cm of water) was recorded from a STATHAM pressure transducer (P 32 AA).
The change in tracheal pressure was averaged for at least 3 control and 3 drug-treated animals and percent inhibition was calculated. The relative potency of compounds administered by the instillation route was determined by administering various doses of test compound and calculating the median effective dose (ED50 value). The ED50 was determined from log dose-response curves generated by at least 3 doses that caused inhibitory effects between 10% and 90%. The correlation coefficients for the regression line of each compound was always greater than 0.95.
For determination of the time course of inhibition for various compounds, the time between administration of compound and challenge with histamine was varied. The time course of activity was calculated as the time when inhibition decreased to 40%.
The results summarized in Table II show the in vivo bronchodilator activity of the VIP analogs in comparison to native VIP.

[2] = system: guinea pig tracheal smooth muscle; experiment: Tracheal relaxant activity of VIP analogs on isolated guinea pig tracheal rings; assay type: cell-based; details: cumulative concentration response, relaxation as % of maximum response to VIP (10^-6 M=100%), three tissues pooled, linear regression
Protocol: The relaxant activity of the VIP analogs were studied in a model utilizing guinea pig trachea. [Wasserman, M. A. et al., in Vasoactive Intestinal Peptide, S. I. Said, ed., Raven Press, New York 1982, pp 177-184] All tissues were taken from male albino guinea pig weighing 400-600 g, anesthetized with urethane (2 g/kg, i.p.). After exanguination, the trachea were removed and divided into four ring segments (3 mm length). Each ring was suspended by 30 gauge stainless steel wires in a 10 mL jacketed tissue bath and attached via 4-0 silk thread to a GRASS force displacement transducer (model FT03C, Grass Instruments Co., Quincy, Mass.), for isometric recording of tension. The smooth muscle was bathed in modified Krebs solution of the following composition: NaCl, 120 mM; KCl, 4.7 mM; CaCl2, 2.5 mM; MgSO4.7H2 O, 1.2 mM; NaHCO3, 25 mM; K2 HPO4 monobasic, 1.2 mM; and dextrose, 10 mM. Tissue baths were maintained at 37° C. and constantly bubbled with 95% O2 and 5% CO2. Responses were recorded on an 8 channel and a 4 channel HEWLETT-PACKARD (model 7702B and 7754A, respectively) recorder (Hewlett- Packard, Paramus, N.J.). Tracheal rings were placed under a resting tension of 1.5 g which was determined to be at or near optimal in preliminary experiments. Frequent readjustments of tension were required during the 60 minute stabilization period which followed. Tissues were rinsed at 15 minute intervals.
Cumulative concentration response curves were obtained for each tissue by successive […] increases in the bath concentration of VIP or VIP analogs according to the method of VanRossum [Arch. Int. Pharmacodyn., 143, 299-330 (1963)]. Only one cumulative dose response curve was obtained on a single tissue. To minimize variability between tissues, relaxant responses were expressed as a percentage of the maximum response obtained to VIP (10^-6 M=100%) added at the end of each concentration response experiment. Responses obtained from three tissues were pooled and EC50 values were determined by linear regression.
The results summarized in Table I show the tracheal relaxant activity of the VIP analogs in comparison to native VIP.

Structure (SMILES) | EC50 [2] | Bronchodilator activity of VIP analogs in guinea pigs, ED50 [1]
CCCC[C@H](NC(=O)[C@@H]1CCC(=O)NCCCC[C@H](NC(=O)[C@@H](NC(=O)[C@H](Cc2ccc(O)cc2)NC(=O)[C@H](CC(N)=O)NC(=O)[C@H](CC(=O)O)NC(=O)[C@@H](NC(=O)[C@H](Cc2ccccc2)NC(=O)[C@@H](NC(=O)[C@H](C)NC(=O)[C@H](CC(=O)O)NC(=O)[C@H](CO)NC(=O)[C@H](Cc2c[nH]cn2)NC(C)=O)C(C)C)[C@@H](C)O)[C@@H](C)O)C(=O)N[C@@H](CC(C)C)C(=O)N[C@@H](CCCNC(=N)N)C(=O)N[C@@H](CCCCN)C(=O)N1)C(=O)N[C@@H](C)C(=O)N[C@H](C(=O)N[C@@H](CCCCN)C(=O)N[C@@H](CCCCN)C(=O)N[C@@H](Cc1ccc(O)cc1)C(=O)N[C@@H](CC(C)C)C(=O)N[C@@H](CC(N)=O)C(=O)N[C@@H](CO)C(=O)N[C@H](C(=O)N[C@@H](CC(C)C)C(=O)N[C@H](C(N)=O)[C@@H](C)O)C(C)C)C(C)C [SEQ ID NO:26, Ac-[Lys^12,Glu^16,Nle^17,Val^26,Thr^28]-VIP cyclo (Lys^12 →Glu^16)] (Ac-HSDAVFTDNYTKLRKE[Nle]AVKKYLNSVLT-NH2; lactam 12-16) | 37 nM | 39 μg
CCCC[C@H](NC(=O)[C@H](CCC(N)=O)NC(=O)[C@H](CCCCN)NC(=O)[C@H](CCCNC(=N)N)NC(=O)[C@H](CC(C)C)NC(=O)[C@H](CCCCN)NC(=O)[C@@H](NC(=O)[C@H](Cc1ccc(O)cc1)NC(=O)[C@H](CC(N)=O)NC(=O)[C@H](CC(=O)O)NC(=O)[C@@H](NC(=O)[C@H](Cc1ccccc1)NC(=O)[C@@H](NC(=O)[C@H](C)NC(=O)[C@H](CC(=O)O)NC(=O)[C@H](CO)NC(=O)[C@H](Cc1c[nH]cn1)NC(C)=O)C(C)C)[C@@H](C)O)[C@@H](C)O)C(=O)N[C@@H](C)C(=O)N[C@H](C(=O)N[C@H]1CCCCNC(=O)C[C@@H](C(=O)N[C@@H](CO)C(=O)N[C@H](C(=O)N[C@@H](CC(C)C)C(=O)N[C@H](C(N)=O)[C@@H](C)O)C(C)C)NC(=O)[C@H](CC(C)C)NC(=O)[C@H](Cc2ccc(O)cc2)NC(=O)[C@H](CCCCN)NC1=O)C(C)C [SEQ ID NO:27, Ac-[Lys^12,Nle^17,Asp^24,Val^26,Thr^28]-VIP cyclo (Lys^20 →Asp^24)] (Ac-HSDAVFTDNYTKLRKQ[Nle]AVKKYLDSVLT-NH2; lactam 20-24) | 5.3 nM | 2.3 μg
CCCC[C@H](NC(=O)[C@H](CCC(N)=O)NC(=O)[C@H](CCCCN)NC(=O)[C@H](CCCNC(=N)N)NC(=O)[C@H](CC(C)C)NC(=O)[C@H](CCCCN)NC(=O)[C@@H](NC(=O)[C@H](Cc1ccc2ccccc2c1)NC(=O)[C@H](CC(N)=O)NC(=O)[C@H](CC(=O)O)NC(=O)[C@@H](NC(=O)[C@H](Cc1ccc(F)cc1)NC(=O)[C@@H](NC(=O)[C@H](C)NC(=O)[C@H](CC(=O)O)NC(=O)[C@H](CO)NC(=O)[C@H](Cc1c[nH]cn1)NC(C)=O)C(C)C)[C@@H](C)O)[C@@H](C)O)C(=O)N[C@@H](C)C(=O)N[C@H](C(=O)N[C@@H](CCCCN)C(=O)N[C@H]1CCCCNC(=O)C[C@@H](C(=O)N[C@H](C(=O)N[C@@H](CC(C)C)C(=O)N[C@H](C(=O)NCC(=O)NCC(=O)N[C@@H](CCSC)C(N)=O)[C@@H](C)O)C(C)C)NC(=O)[C@H](CC(N)=O)NC(=O)[C@H](CC(C)C)NC(=O)[C@H](Cc2ccc(O)cc2)NC1=O)C(C)C [SEQ ID NO:30, Ac-[p-F-Phe^6,2-Nal^10,Lys^12,Nle^17,Asp^25,Val^26,Thr^28,Gly^29,30,Met^31]-VIP (1-31)-NH2 cyclo (Lys^21 →Asp^25)] (Ac-HSDAV[Phe(4-F)]TDN[2Nal]TKLRKQ[Nle]AVKKYLNDVLTGGM-NH2; lactam 21-25) | 1.3 nM | 0.90 μg
CCCC[C@H](NC(=O)[C@H](C)NC(=O)[C@H](CCCCN)NC(=O)[C@H](CCCNC(=N)N)NC(=O)[C@H](CC(C)C)NC(=O)[C@H](CCCCN)NC(=O)[C@@H](NC(=O)[C@H](Cc1ccc(O)cc1)NC(=O)[C@H](CC(N)=O)NC(=O)[C@H](CCC(=O)O)NC(=O)[C@@H](NC(=O)[C@H](Cc1ccccc1)NC(=O)[C@@H](NC(=O)[C@H](C)NC(=O)[C@H](CC(=O)O)NC(=O)[C@H](CO)NC(=O)[C@H](Cc1c[nH]cn1)NC(C)=O)C(C)C)[C@@H](C)O)[C@@H](C)O)C(=O)N[C@@H](C)C(=O)N[C@@H](C)C(=O)N[C@@H](CCCCN)C(=O)N[C@H]1CCCCNC(=O)C[C@@H](C(=O)N[C@@H](CC(C)C)C(=O)N[C@@H](CCCCN)C(=O)N[C@@H](CCCCN)C(N)=O)NC(=O)[C@H](CC(N)=O)NC(=O)[C@H](CC(C)C)NC(=O)[C@H](Cc2ccc(O)cc2)NC1=O [SEQ ID NO:63, Ac-[Glu^8,Lys^12,Ala^16,Nle^17,Ala^19,Asp^25,Leu^26,Lys^27,28]-VIP cyclo (Lys^21 →Asp^25)] (Ac-HSDAVFTENYTKLRKA[Nle]AAKKYLNDLKK-NH2; lactam 21-25) | 0.9 nM | –

The next lines start with results.

EC50 [2] | Structure (SMILES) | Bronchodilator activity of VIP analogs in guinea pigs, ED50 [1]
3.1 nM | CCCC[C@H](NC(=O)[C@H](CCC(N)=O)NC(=O)[C@H](CCCCN)NC(=O)[C@H](CCCNC(=N)N)NC(=O)[C@H](CC(C)C)NC(=O)[C@H](CCCCN)NC(=O)[C@@H](NC(=O)[C@H](Cc1ccc(O)cc1)NC(=O)[C@H](CC(N)=O)NC(=O)[C@H](CC(=O)O)NC(=O)[C@@H](NC(=O)[C@H](Cc1ccccc1)NC(=O)[C@@H](NC(=O)[C@H](C)NC(=O)[C@H](CC(=O)O)NC(=O)[C@H](CO)NC(=O)[C@H](Cc1c[nH]cn1)NC(C)=O)C(C)C)[C@@H](C)O)[C@@H](C)O)C(=O)N[C@@H](C)C(=O)N[C@H](C(=O)N[C@@H](CCCCN)C(=O)N[C@H]1CCCCNC(=O)C[C@@H](C(=O)N[C@H](C(=O)N[C@@H](CC(C)C)C(=O)N[C@H](C(N)=O)[C@@H](C)O)C(C)C)NC(=O)[C@H](CC(N)=O)NC(=O)[C@H](CC(C)C)NC(=O)[C@H](Cc2ccc(O)cc2)NC1=O)C(C)C [SEQ ID NO:28, Ac-[Lys^12,Nle^17,Asp^25,Val^26,Thr^28]-VIP cyclo (Lys^21 →Asp^25)] (Ac-HSDAVFTDNYTKLRKQ[Nle]AVKKYLNDVLT-NH2; lactam 21-25) | 1.2 μg
0.7 nM | CCCC[C@H](NC(=O)[C@H](CCC(N)=O)NC(=O)[C@H](CCCCN)NC(=O)[C@H](CCCNC(=N)N)NC(=O)[C@H](CC(C)C)NC(=O)[C@H](CCCCN)NC(=O)[C@@H](NC(=O)[C@H](Cc1ccc(O)cc1)NC(=O)[C@H](CC(N)=O)NC(=O)[C@H](CC(=O)O)NC(=O)[C@@H](NC(=O)[C@H](Cc1ccccc1)NC(=O)[C@@H](NC(=O)[C@H](C)NC(=O)[C@H](CC(=O)O)NC(=O)[C@H](CO)NC(=O)[C@H](Cc1c[nH]cn1)NC(C)=O)C(C)C)[C@@H](C)O)[C@@H](C)O)C(=O)N[C@@H](C)C(=O)N[C@@H](C)C(=O)N[C@@H](CCCCN)C(=O)N[C@H]1CCCCNC(=O)C[C@@H](C(=O)N[C@H](C(=O)N[C@@H](CC(C)C)C(=O)N[C@H](C(N)=O)[C@@H](C)O)C(C)C)NC(=O)[C@H](CC(N)=O)NC(=O)[C@H](CC(C)C)NC(=O)[C@H](Cc2ccc(O)cc2)NC1=O [SEQ ID NO:29, Ac-[Lys^12,Nle^17,Ala^19,Asp^25,Val^26,Thr^28]-VIP cyclo (Lys^21 →Asp^25)] (Ac-HSDAVFTDNYTKLRKQ[Nle]AAKKYLNDVLT-NH2; lactam 21-25) | 0.34 μg
